Measured values taken from ChEMBL document CHEMBL1201862, “PubChem BioAssay data set” (2004).
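Cultured in 96-well plates, cells were exposed to test compound for 48 hours across five concentrations. GI50 is the concentration that inhibits growth by half.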 The source made the active and inactive calls. No stated cut-off is given here; in the data, active = GI50 up to about 1.1 µM and inactive = higher.

Columns and labels:
Test in all cases: NCI anticancer screen, dose series, 48 h
[1] = tested on: 786-0
[2] = tested on: A498
[3] = tested on: A549
[4] = tested on: ACHN
[5] = tested on: BT-549
[6] = tested on: CAKI-1
[7] = tested on: CCRF-CEM
[8] = tested on: COLO 205
[9] = tested on: EKVX
[10] = tested on: HCC 2998
[11] = tested on: HCT-116
[12] = tested on: HCT-15
[13] = tested on: HL-60
[14] = tested on: HOP-62
[15] = tested on: HOP-92
[16] = tested on: HT-29
[17] = tested on: Hs-578T
[18] = tested on: IGROV-1
[19] = tested on: K562
[20] = tested on: KM12
[21] = tested on: LOX IMVI
[22] = tested on: M14
[23] = tested on: MCF7
[24] = tested on: MDA-MB-231
[25] = tested on: MDA-MB-435
[26] = tested on: MDA-N
[27] = tested on: MOLT-4
[28] = tested on: Malme-3M
[29] = tested on: NCI-H226
[30] = tested on: NCI-H23
[31] = tested on: NCI-H460
[32] = tested on: NCI/ADR-RES
[33] = tested on: OVCAR-3
[34] = tested on: OVCAR-4
[35] = tested on: OVCAR-5
[36] = tested on: OVCAR-8
[37] = tested on: PC-3
[38] = tested on: RXF 393
[39] = tested on: SF-295
[40] = tested on: SF-539
[41] = tested on: SK-MEL-28
[42] = tested on: SK-MEL-2
[43] = tested on: SK-MEL-5
[44] = tested on: SK-OV-3
[45] = tested on: SN12C
[46] = tested on: SNB-19
[47] = tested on: SNB-75
[48] = tested on: SR
[49] = tested on: SW-620
[50] = tested on: TK-10
[51] = tested on: U-251
[52] = tested on: UACC-257
[53] = tested on: UACC-62
[54] = tested on: UO-31
[55] = tested on: DU-145
[56] = tested on: NCI-H522
[57] = tested on: RPMI-8226

SMILES: O=C1Nc2c(Cl)cc(Cl)cc2/C1=N/NC(=O)c1ccncc1
- GI50 [1]: 17.4 µM (inactive)
- GI50 [2]: > 100 µM (inactive)
- GI50 [3]: > 100 µM (inactive)
- GI50 [4]: 38 µM (inactive)
- GI50 [5]: 37.8 µM (inactive)
- GI50 [6]: 18.4 µM (inactive)
- GI50 [7]: 29.4 µM (inactive)
- GI50 [8]: 27.2 µM (inactive)
- GI50 [9]: 28.5 µM (inactive)
- GI50 [10]: 44.1 µM (inactive)
- GI50 [11]: 19.1 µM (inactive)
- GI50 [12]: 32.1 µM
- GI50 [13]: 9.64 µM (inactive)
- GI50 [14]: 25.8 µM (inactive)
- GI50 [15]: 33.2 µM (inactive)
- GI50 [16]: 27.4 µM (inactive)
- GI50 [17]: 40.6 µM (inactive)
- GI50 [18]: 22.9 µM (inactive)
- GI50 [19]: 27.9 µM (inactive)
- GI50 [20]: 30.9 µM (inactive)
- GI50 [21]: 16.9 µM (inactive)
- GI50 [22]: 46.2 µM (inactive)
- GI50 [23]: 32.9 µM (inactive)
- GI50 [24]: 17.3 µM (inactive)
- GI50 [25]: 16.5 µM (inactive)
- GI50 [26]: 15.7 µM (inactive)
- GI50 [27]: 25.2 µM (inactive)
- GI50 [28]: 16.9 µM (inactive)
- GI50 [29]: 47.2 µM (inactive)
- GI50 [30]: 22.8 µM (inactive)
- GI50 [31]: 46.7 µM (inactive)
- GI50 [32]: 23.1 µM (inactive)
- GI50 [33]: 15.5 µM (inactive)
- GI50 [34]: 22.2 µM (inactive)
- GI50 [35]: 61 µM (inactive)
- GI50 [36]: 20.6 µM (inactive)
- GI50 [37]: 15.7 µM (inactive)
- GI50 [38]: 20 µM (inactive)
- GI50 [39]: 38.5 µM (inactive)
- GI50 [40]: 21.6 µM (inactive)
- GI50 [41]: 22.6 µM (inactive)
- GI50 [42]: 19 µM (inactive)
- GI50 [43]: 17.9 µM (inactive)
- GI50 [44]: 25.6 µM (inactive)
- GI50 [45]: 26.2 µM (inactive)
- GI50 [46]: > 100 µM (inactive)
- GI50 [47]: 46.3 µM (inactive)
- GI50 [48]: 14.7 µM (inactive)
- GI50 [49]: 28.4 µM (inactive)
- GI50 [50]: 73.1 µM (inactive)
- GI50 [51]: 18.1 µM (inactive)
- GI50 [52]: 19.6 µM (inactive)
- GI50 [53]: 17.3 µM (inactive)
- GI50 [54]: 27.9 µM (inactive)

SMILES: COC(=O)CC1CN(C(=O)OCc2ccccc2)C(C)(C)O1 (stereo not drawn)
- GI50 [1]: > 100 µM (inactive)
- GI50 [2]: > 100 µM (inactive)
- GI50 [3]: > 100 µM (inactive)
- GI50 [4]: > 100 µM (inactive)
- GI50 [5]: 4.97 µM (inactive)
- GI50 [6]: > 100 µM (inactive)
- GI50 [7]: > 100 µM (inactive)
- GI50 [8]: > 100 µM (inactive)
- GI50 [55]: > 100 µM (inactive)
- GI50 [9]: 35.2 µM (inactive)
- GI50 [10]: > 100 µM (inactive)
- GI50 [11]: > 100 µM (inactive)
- GI50 [12]: > 100 µM
- GI50 [13]: 89.9 µM (inactive)
- GI50 [15]: 94.6 µM (inactive)
- GI50 [18]: 82.2 µM (inactive)
- GI50 [19]: > 100 µM (inactive)
- GI50 [20]: 43.3 µM (inactive)
- GI50 [21]: > 100 µM (inactive)
- GI50 [22]: > 100 µM (inactive)
- GI50 [23]: > 100 µM (inactive)
- GI50 [24]: > 100 µM (inactive)
- GI50 [25]: > 100 µM (inactive)
- GI50 [26]: > 100 µM (inactive)
- GI50 [27]: 80.2 µM (inactive)
- GI50 [28]: 45.3 µM (inactive)
- GI50 [29]: 2 µM (inactive)
- GI50 [30]: 28.8 µM (inactive)
- GI50 [31]: > 100 µM (inactive)
- GI50 [56]: 5.46 µM (inactive)
- GI50 [32]: > 100 µM (inactive)
- GI50 [33]: > 100 µM (inactive)
- GI50 [34]: > 100 µM (inactive)
- GI50 [35]: > 100 µM (inactive)
- GI50 [36]: > 100 µM (inactive)
- GI50 [37]: 62.7 µM (inactive)
- GI50 [57]: 81.3 µM (inactive)
- GI50 [38]: > 100 µM (inactive)
- GI50 [39]: > 100 µM (inactive)
- GI50 [40]: > 100 µM (inactive)
- GI50 [41]: 9.06 µM (inactive)
- GI50 [42]: > 100 µM (inactive)
- GI50 [43]: 44.6 µM (inactive)
- GI50 [44]: > 100 µM (inactive)
- GI50 [45]: > 100 µM (inactive)
- GI50 [46]: 7.08 µM (inactive)
- GI50 [47]: 3.3 µM (inactive)
- GI50 [48]: > 100 µM (inactive)
- GI50 [49]: > 100 µM (inactive)
- GI50 [50]: 56.9 µM (inactive)
- GI50 [51]: > 100 µM (inactive)
- GI50 [52]: > 100 µM (inactive)
- GI50 [53]: > 100 µM (inactive)
- GI50 [54]: 38.6 µM (inactive)
